In general, inhibition refers to the drop in the measured response relative to a control, in per cent. As usually defined, the IC50 is the point on the concentration scale where inhibition reaches its midpoint. A low value points to greater potency in that assay.

From paper PMC11241262, “Unravelling the Antifibrinolytic Mechanism of Action of the 1,2,3-Triazole Derivatives” (International Journal of Molecular Sciences, 2024) come the findings set out here.

Data set [1] is described as follows: in vivo. Conditions: both sexes, Wistar, rat, iv. The method, then:
A MTD study was performed for compound 5 in Wistar rats and Beagle dogs. A total of 25 male and 25 female Wistar rats were received in the experimental room and acclimatized for a period of 5 days prior to randomization. The environmental and housing conditions maintained during the experiment were identical to those described in the pharmacokinetic study. At the start of dosing, rats were between 6 and 7 w.o., and their body weight varied no more than ±20% from the mean body weight for each sex. During randomization, 20 male and 20 female rats were selected for the study, which were randomly allocated to four different dose level groups: D1, D2, D3, and D4. Each group consisted of 5 male and 5 female rats. The remaining 5 male and 5 female rats were returned to the animal facility.
Dose formulations of compound 5 were administered by an intravenous bolus injection through the tail vein, using a sterile needle attached to a graduated syringe. Sterile water also served as a vehicle in the MTD assay. A fixed dose volume of 5 mL/kg b. wt. was used, and individual doses were adjusted according to the most recent recorded body weight of each rat. […]
Rats were subjected to twice-daily monitoring for clinical, mortality, and morbidity signs throughout the study. […] Body weight was recorded on days 1 (before treatment), 4, 8, 11, and 14 of the study. […]

The nature of data set [2]: in vivo. Conditions: dog. The method, then: In the case of dogs, one male and one female Beagle dog were selected for the study. A period of 5 days was used to allow dogs to acclimatize, and at the start of dosing, they were between 5 and 6 months old. Dogs were housed individually per sex in an environmentally controlled room, maintained at 24 ± 2 °C and 71.5 ± 4.5% relative humidity, on a 12–12 h light–dark cycle (beginning at 06:00 h) with 17 or 22 air changes per hour. Dogs were provided with 300 g feed every day and with water ad libitum.
Compound 5 was administered via an intravenous bolus injection through the cephalic vein of the forelimb, using a sterile needle attached to a graduated syringe. An initial dose level of 50 mg/kg b. wt. […] Following a washout period of 7 days, a dose of 75 mg/kg b. wt. […] A constant volume of 1 mL/kg b. wt. was used, with individual doses adjusted to the most recent recorded body weight of each animal. Dogs were observed twice daily for clinical, mortality, and morbidity signs throughout the study period of 7 days. Body weight was recorded on dosing day and every two days during the assay period. Additionally, a daily record of individual dog feed intake and leftover feed was maintained. Blood samples were obtained prior to dosing and on day 7. Blood was extracted either from the cephalic vein in the forelimb or the lateral saphenous vein in the hind limb. Around 2.0 mL of blood was collected in non-heparin centrifuge tubes for serum separation to conduct clinical chemistry estimations. An additional 0.5 mL of blood was collected in EDTA-containing vials for hematology analysis and another 0.5 mL of blood was collected in tubes containing a 3.2% sodium citrate solution for Prothrombin time determination. Dogs were fasted overnight, with only water allowed prior to blood collection. Hematology and clinical chemistry determinations are available upon request. Dogs were euthanized by an intravenous injection of barbiturate (thiopentone sodium 100 mg/kg b. wt.). Then, a comprehensive gross necropsy was performed. Dogs were first examined for external abnormalities. The cranial, thoracic, and abdominal cavities were then dissected, and a thorough examination of the organs was conducted. Specifically, the liver, testes, uterus, brain, and kidneys were collected and subjected to microscopic examination using paraffin-embedded tissue stained with hematoxylin-eosin.

The target of the next data set is T1, plasmin (Homo sapiens, UniProt P00747).
T1 construct: purchased abcam
T1 sequence (P00747 97-580 limits assumed): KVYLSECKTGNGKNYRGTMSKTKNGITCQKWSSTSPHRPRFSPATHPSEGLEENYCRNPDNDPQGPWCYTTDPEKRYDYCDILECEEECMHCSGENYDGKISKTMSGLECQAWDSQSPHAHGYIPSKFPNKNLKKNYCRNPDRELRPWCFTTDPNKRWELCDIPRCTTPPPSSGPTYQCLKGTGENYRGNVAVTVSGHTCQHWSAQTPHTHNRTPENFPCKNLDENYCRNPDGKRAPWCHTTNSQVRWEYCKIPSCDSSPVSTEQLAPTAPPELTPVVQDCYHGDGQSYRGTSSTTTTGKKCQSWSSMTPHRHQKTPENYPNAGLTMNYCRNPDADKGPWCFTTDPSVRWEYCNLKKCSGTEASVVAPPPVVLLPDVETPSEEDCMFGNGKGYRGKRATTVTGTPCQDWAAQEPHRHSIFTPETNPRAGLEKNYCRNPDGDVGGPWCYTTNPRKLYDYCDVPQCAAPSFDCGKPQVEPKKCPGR
T1 sequence (P00747 581-810 limits assumed): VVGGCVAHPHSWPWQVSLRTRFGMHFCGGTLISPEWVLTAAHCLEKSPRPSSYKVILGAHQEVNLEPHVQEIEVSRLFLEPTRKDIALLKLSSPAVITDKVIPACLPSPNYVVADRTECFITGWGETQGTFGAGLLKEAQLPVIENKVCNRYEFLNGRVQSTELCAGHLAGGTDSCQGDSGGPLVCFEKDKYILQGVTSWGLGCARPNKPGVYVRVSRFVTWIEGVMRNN
The data set can be described thus: Plasmin activity assay (Plasmin Inhibitor Screening Assay Kit). The data set is classed as biochemical. How it is done:
The potential activity of the studied compounds on the catalytic domain of plasmin was evaluated using the Plasmin Inhibitor Screening Assay Kit (abcam), following the manufacturer’s instructions. Briefly, the assay measures the inhibition of plasmin’s activity by the tested compounds through the cleavage of a fluorogenic peptide substrate. The assay was performed in flat-bottom 96-well plates. Plasmin was pre-incubated with different concentrations of the tested compounds for 10 min at RT prior to the addition of the peptide substrate. Plasmin’s activity was then measured by monitoring the increase in fluorescence intensity over time using a microplate reader (Infinite M Plex, Tecan, Männedorf, Switzerland) at an Ex/Em of 360/450 nm, every minute at 37 °C for 10 min. The slope of each sample was determined using the initial and final fluorescence values and their respective time points. (1) Fluorescence slope=RFU2−RFU1/t2−t1
The Relative Plasmin Inhibition was calculated according to the manufacturer’s instructions using a control slope with no compound (enzyme control):(2) Relative Plasmin Inhibition%=SlopeControl−SlopeCompound/SlopeControl×100

Data set [3] deals with whole blood clot formation. Nature of the data set: Whole blood coagulation assay (clot formation, no exogenous tPA). More on the design: species or system human. To be noted: 40 µM, 37 °C, fibrinolysis not triggered. How it is done:
Blood was obtained by venipuncture from healthy donors after they signed an informed consent form. Blood was transferred into vacuum non-anticoagulant Vacutainer® tubes (BD, Franklin Lakes, NJ, USA). Blood samples were immediately used for the assay after extraction.
Prior to blood addition, 20 µL of the evaluated compounds was added to glass tubes, in a final concentration of 40 µM. As a control clot, 20 µL of Tris HCl buffer with no compound was used. Next, 800 µL of blood was transferred to each tube followed by casual shaking to ensure proper mixing. Tubes were incubated at 37 °C for 30 min to allow clot formation and posterior lysis. Blood clotting and lysis were visually monitored and photographs were taken after 30 min.

Turning to `O=c1[nH]nc(-c2cn(C3CCNCC3)nn2)o1` [compound 5], the MTD at 14 days in the data set “in vivo [1]” came to 300 mg/kg. Also, in the data set “in vivo [2]” (both, Beagle, iv), the MTD at 7 days worked out at 75 mg/kg. Besides, in the data set “in vivo [2]”, the “Microscopic Findings, kidneys” value is on record as “Kidneys (bilateral): min ima l infiltration”; the “Microscopic Findings, testes” value is on record as “Testes (bilateral): immature – present”; the “hematology and clinical chemistry parameters” value is listed as “did not show any alteration”; the “terminal body and organ weight” value is on record as “no treatment-related alterations”. Moreover, the inhibition at 5000 µM at plasmin (5 mM, read-out: percentage of plasmin's inhibition) came to 6.29%. The inhibition at 10000 µM at plasmin (10 mM, read-out: percentage of plasmin's inhibition) is 23.9%. Also, the inhibition at 15000 µM on plasmin (15 mM, read-out: percentage of plasmin's inhibition) turned out to be 31.3%. Also, on plasmin (20 mM, read-out: percentage of plasmin's inhibition), the inhibition at 20000 µM came out at 65.3%. This molecule showed an IC50 against plasmin (inhibition of plasmin's cleavage of a synthetic substrate by 50%) of 17.9 ± 1.24 mM. Besides, the “increase of IC50 of plasmin's catalytic domain compared to IC50 in plasma clot lysis assay” value at plasmin (plasma clot lysis IC50 from Bosch-Sanz et al. [43]) came to 1000 fold. The “effect on clot formation” value in data set [3] is “do not have any effect”.
